From patent US20060004086A1, “Method of reducing Abeta42 and treating diseases” (Mayo Foundation for Medical Education and Research, priority 2000, published 2006)
Like-named read-outs stand apart in the source and are kept apart here.

Tests used:
Aβ42 secretion [1] = test: Aβ40/Aβ42 ELISA of culture supernatants, CHO cells expressing APP751; format: cell-based, Chinese hamster; settings: concentrations of up to 3 mM; data not shown
Procedure: (§1) Cell cultures were maintained in standard cell culture media supplemented with 10% fetal bovine serum and 100 U/mL penicillin/streptomycin (Life Technologies Inc., Germany).
(§2) For analyses of Aβ secretion, APP processing, and notch cleavage, cells were cultured in serum-containing media and pretreated overnight with a specific NSAID. The next day, media were changed and cultures were treated with the same NSAID for another 24 hours.
(§3) Aβ was detected by sandwich enzyme-linked immunosorbent assay (ELISA) as described by Murphy et al. (2000) J Biol Chem 275:26277-84. Following NSAID treatment, culture supernatants were collected, and cell debris was removed by centrifugation. Complete protease inhibitor cocktail (Roche Molecular Biochemicals, IN, USA) was added to the media and Aβ40 and Aβ42 levels were quantified using end-specific Aβ ELISAs. All measurements were performed in duplicate.
The effect of sulindac sulfone on Aβ42 secretion was examined. Sulindac sulfone is an oxidation product of the pro-drug sulindac. […] Cell cultures were treated with increasing concentrations of sulindac sulfone. Aβ40 and Aβ42 levels in culture supernatants were analyzed using ELISA.
(§4) Aβ40 and Aβ42 levels in cell culture supernatants were analyzed using ELISA. Aβ42/Aβ40 ratios and total Aβ levels were normalized to values obtained from DMSO-treated cultures. […] NSAIDs were verified using NMR and mass spectrometry.

Aβ42 secretion [2] = test: Non-selective and selective COX-inhibitors tested for effect on Aβ42 levels in cell cultures (Table 1 summary); format: cell-based; settings: effect up to the highest conc. tested listed per drug in Table 1
Procedure: All measurements were performed in duplicate.
as §4

Aβ42 secretion [3] = test: Primary in vitro screen, CHO-APP695NL,I,his cells, end-specific Aβ40 and Aβ42 ELISAs; format: cell-based, Chinese hamster; settings: Cricetulus griseus, 6 h
Procedure: Aβ40 and Aβ42 levels in culture supernatants were determined for each time points using ELISA.
In a primary screen, the effects of NSAIDs on Aβ42 secretion by a CHO cell line that expressed APP(CHO-APP695NL,I,his) were examined. Duplicate cell cultures were treated with (a) a vehicle, (b) 10 μM of NSAID, or (c) 100 μM of NSAID.
To determine Aβ40 and Aβ42 levels, six-hour culture supernatants taken from cells grown in a single well of a twenty-four-well plate were used in end-specific Aβ40 and Aβ42 ELISAs (Suzuki, et al. (1994) Sci 264:[…]). Aβ40 and Aβ42 levels of cultures treated with NSAID were compared with those of cultures treated with the vehicle alone. […] NSAIDs that caused either selective reduction of Aβ42 levels or reduction in both Aβ40 and Aβ42 levels are subjected to a secondary screen.

[4] = plasma concentration of the drug; cited from earlier work
COX-1/COX-2 = settings: cited from earlier work
Aβ42 secretion [5] = test: Aβ40/Aβ42 ELISA of culture supernatants, CHO cells expressing APP751 and PS-1 mutant M146L; format: cell-based, Chinese hamster
Procedure: as §1, §2, §3
(§5) Levels of Aβ40 and Aβ42 in culture supernatants were analyzed using ELISA. […] Aβ42/Aβ40 ratios and total Aβ levels (i.e., the sum of Aβ40 and Aβ42 values) were normalized to values obtained from DMSO-treated cells. Results shown were averages of two or three experiments performed in duplicate.
Aβ40 and Aβ42 levels in culture supernatants were analyzed using ELISA as described in Example 3. […] Aβ42/Aβ40 ratios and total Aβ levels were normalized to values obtained from ethanol-treated cells. Results shown were averages of two or three experiments, each performed in duplicate.

Aβ42 secretion [6] = test: Aβ secretion in kidney HEK293 cells; format: cell-based; settings: data not shown
Procedure: as §1, §2, §3, §5

Aβ42 secretion [7] = test: Aβ ELISA, primary fibroblasts from COX-1/COX-2 double-knockout mice expressing APP695; format: cell-based; settings: primary mouse embryonic fibroblasts; data not shown
From the text: as §1, §3

CHO or HS683 cells = test: NSAID cell toxicity, MTT-assay or [3H]-thymidine incorporation assay; settings: concentrations up to 100 μM; data not shown
From the text: NSAID toxicity in CHO or HS683 cells was examined using standard MTT-assay (3-(4,5-Dimethyl-2-thiazolylyl)-2,5-diphenyl-2H-tetrazolium Bromide) or [^3H]-thymidine incorporation assay.

APP processing = test: Western blot of APP, APP CTFs and sAPP, CHO cells expressing APP751; format: cell-based, Chinese hamster
From the text: Expression of holo-APP and APP C-terminal fragments (CTFs) was examined by Western blot analysis using antibody CT-15. APP secretion was examined by Western blotting using a mixture of 5A3/IG7 antibodies. APP turnover was examined by pulse labeling of CHO cells with 150 μCi [^35S]-methionine for fifteen minutes followed by a cold chase step for up to four hours. Cell lysates were immunoprecipitated with antibody CT-15, subjected to SDS-PAGE, and analyzed by phosphor imaging.
Cell lysates were prepared, and steady-state APP levels were examined using 4-12% gradient-gel electrophoresis and western blotting using the polyclonal antibody CT15.

[8] = system: Notch intramembrane cleavage; test: Notch intramembrane cleavage and NICD formation in HEK293 cells; format: cell-based
From the text: Two Notch-encoding vector constructs were used in examining Notch processing. These were a construct expressing a myc-tagged NH2-terminal truncated Notch-1 polypeptide (NotchΔEMV), and a construct expressing only the Notch intracellular cytoplasmic domain (NICD) (see Kopan et al. (1996) Proc Natl Acad Sci USA 93:1683-8). In the construct expressing a myc-tagged NH2-terminal truncated Notch-1 polypeptide, the start codon, a methionine at position 1726, was mutated to a valine to eliminate translation initiation.
Notch intramembrane cleavage and formation of NICD were analyzed in kidney HEK293 cells. The myc-tagged NotchΔEMV construct encoding a constitutively cleaved Notch variant was transiently transfected into HEK293 cells. […] Then they were pulse labeled with ^35S-methionine for thirty minutes and chased for two hours. Cell lysates were prepared and subjected to immunoprecipitation with monoclonal antibody 9E10. Immunoprecipitated proteins were subjected to SDS-PAGE and phosphor imaging analyses.

Aβ species [9] = test: Immunoprecipitation/mass spectrometry of secreted Aβ species, CHO cells expressing APP751; format: cell-based, Chinese hamster
Procedure: Secretion of Aβ peptides was analyzed using immunoprecipitation/mass spectrometry as described by Wang et al. (1996) J Biol Chem 271:31894-902. Briefly, 1 mL amount of culture supernatant was subjected to immunoprecipitation using the monoclonal antibody 4G8 (Senetek, CA, USA). Molecular masses and concentrations of Aβ peptides were measured using a matrix assisted laser desorption/ionization time-of-flight (MALDI-TOF) mass spectrometer. To compare the concentrations of individual Aβ species in culture supernatants, synthetic Aβ12-28 peptides (Sigma, MO, USA) were added to the supernatant samples as internal standards and relative peak heights were calculated.
To examine Aβ species secreted by cells treated with sulindac sulfide, immunoprecipitation and mass spectrometry analyses were performed. […] Various Aβ species including Aβ1-42, Aβ1-39, Aβ1-38, and Aβ1-37 were quantified. […] Duplicate measurements were used in generating the bar graph. […] Increases in Aβ1-38 levels were dose-dependent.

Aβ species [10] = test: Bicine/Urea Aβ western blot, CHO cells expressing APP751 and mutant PS-1; format: cell-based, Chinese hamster; settings: 60 μM or 80 μM, compared with DMSO
Procedure: Bicine/Urea Aβ western blot analysis was performed as described by Wiltfang et al. (1997) Electrophoresis 18:527-32. A 1 mL amount of culture supernatant was subjected to immunoprecipitation using monoclonal antibody 26D6. Immunoprecipitates were mixed with sample buffer and heated to 95° C. for five minutes. Eluant samples were separated on Bicine/Urea gels, then transferred to nitrocellulose membranes, and probed with antibody 26D6. Standard Aβ1-40, Aβ1-42 and Aβ1-38 peptides (Sigma, MO, USA) were used for identification of the Aβ species.
AP polypeptides were immunoprecipitated from culture supernatants of CHO cells expressing APP751 and mutant PS-1. Immunoprecipitates were separated on an SDS-urea gel system that can resolve individual Aβ species (see Wiltfang et al. (1997) Electrophoresis 18:527-32). Standard Aβ1-38, Aβ1-40, and Aβ1-42 peptides were included for identification of different Aβ species.

[11] = system: brain Aβ42 levels in Tg2576 mice; test: Acute oral dosing of three-month-old Tg2576 mice, brain Aβ ELISA; format: in vivo, mouse; settings: Tg2576 mice
Procedure: NSAIDs were dissolved in an appropriate vehicle. Dimethyl sulfoxide (DMSO), ethanol, and ethyl acetate are some examples. The NSAID solution was mixed with Kool-Aid and administered orally using a medicine dropper. […] At two hours after the final doses were administered, animals were sacrificed, and SDS soluble Aβ40 and Aβ42 were analyzed using ELISA.
Three month old mice have high levels of soluble Aβ in the brain but no Aβ deposition (see Hsiao et al. (1996) Science 274:99-102). […] Brain levels of SDS-soluble Aβ40 and Aβ42 were measured using ELISA.
Compounds were administered orally.

Aβ levels in the brain = settings: long-term transgenic mouse studies; cited from earlier work
[12] = six-hour culture supernatants, read-out: % Control % Aβ42
[13] = six-hour culture supernatants, read-out: % Control Aβ40
[14] = six-hour culture supernatants, read-out: % Control Aβ42
[15] = three month-old, 50 mg/kg/day orally for three days, SDS-soluble, mean ± SD
[16] = treatment for three days, 50 mg/kg/day

For `CC(=O)Oc1ccccc1C(=O)O` [Aspirin, Acetylsalicylic acid], the Aβ42 secretion (Aβ42 secretion [1]) was “no reductions in Aβ42 secretion were observed”, the Aβ42/Aβ40 ratio (Aβ42 secretion [2]) was “no effect” and the activity at 100 µM (Aβ42 secretion [3]; [12]) was 104%. The activity at 100 µM (Aβ42 secretion [3]; [13]) was 93%, the activity at 100 µM (Aβ42 secretion [3]; [14]) was 99% and the Plasma [4] was 111 µM. The “COX-1/COX-2 selectivity# (1 = equal activity)” value (COX-1/COX-2) was 166.

For `CSc1ccc(/C=C2/C(C)=C(CC(=O)O)c3cc(F)ccc32)cc1` [Sulindac sulfide, sulindac sulfide], the “total Aβ level (sum of Aβ40 and Aβ42)” value (Aβ42 secretion [5]; sulindac sulfide concentrations of FIG. 1) was “No significant reduction”, the Aβ42 secretion (Aβ42 secretion [6]) was “reduced Aβ42 secretion” and the Aβ42 secretion (Aβ42 secretion [7]) was “reduced Aβ42 secretion”. For the same compound, the cell toxicity (CHO or HS683 cells) was “No cell toxicity was observed”, the “CTF levels (western blot, CT15)” value (APP processing; compared with DMSO) was “nor an increase in CTF levels was observed” and the “steady-state APP levels (western blot, CT15)” value (APP processing; compared with DMSO) was “neither a change in APP levels”. For the same compound, the “secretion of the APP ectodomain (sAPP)” value (APP processing; increasing concentrations, 5A3/1G7 antibodies) was “no significant change”, the “Notch cleavage and NICD formation” value ([8]; 125 μM for 36 hours, HEK293 cells transfected with NotchΔEMV) was “did not impair Notch cleavage and NICD formation” and the “Aβ42 secretion (mass spectrometry)” value (Aβ species [9]; 75-100 μM) was “strong reduction”. The “levels of Aβ40 (mass spectrometry)” value (Aβ species [9]; 75-100 μM) was “largely unaffected”, the “increases in Aβ1-38 levels” value (Aβ species [9]; 75 or 100 μM) was “dose-dependent” and the “other Aβ peptide levels” value (Aβ species [9]; compared with DMSO) was “did not vary consistently”. For the same compound, the “immuno-reactive band corresponding to Aβ1-38” value (Aβ species [10]) was “equivalent increase in the intensity”, the “immuno-reactive band corresponding to Aβ42” value (Aβ species [10]) was “reduction in the intensity” and the activity at 10 µM (Aβ42 secretion [3]; read-out: % Control % Aβ42) was 65%. For the same compound, the activity at 10 µM (Aβ42 secretion [3]; read-out: % Control Aβ40) was 97%, the activity at 10 µM (Aβ42 secretion [3]; read-out: % Control Aβ42) was 57% and the Plasma [4] was 14.6 µM.

In the case of `CC(C)Cc1ccc(C(C)C(=O)O)cc1` (centres unmarked) [Ibuprofen, ibuprofen], the “total Aβ levels” value (Aβ42 secretion [5]; concentrations up to 500 μM) is reported as “not significantly affected”, the “accumulation of APP-CTFs” value (APP processing; 500 μM, data not shown) is reported as “did not cause” and the “inhibition of Notch cleavage” value ([8]; 500 μM, data not shown) is reported as “did not cause”. For the same compound, the “Brain levels of Aβ40” value [11, 15] was 2620 ± 246 fmol/gm, the “Brain levels of Aβ42” value [11, 15] was 734 ± 302 fmol/gm and the “% Aβ42 in brain” value ([11]; three month-old, 50 mg/kg/day orally for three days, mean ± SD) was 21.5 ± 7.7 %. The “Aβ40 levels in the brain” value [11, 16] was “no change”, the “reduction in Aβ42 levels in the brain” value [11, 16] was “approximately 30%” and the activity at 10 µM (Aβ42 secretion [3]; 10 μM, six-hour culture supernatants, read-out: % Control % Aβ42) was 82%. It also gave an activity at 10 µM (Aβ42 secretion [3]; 10 μM, six-hour culture supernatants, read-out: % Control Aβ40) of 102%, an activity at 10 µM (Aβ42 secretion [3]; 10 μM, six-hour culture supernatants, read-out: % Control Aβ42) of 80% and an activity at 100 µM (Aβ42 secretion [3]; [12]) of 81%. For the same compound, the activity at 100 µM (Aβ42 secretion [3]; [13]) was 95%, the activity at 100 µM (Aβ42 secretion [3]; [14]) was 74% and the “Aβ levels in the brain, lower when treated than untreated” value (Aβ levels in the brain) was “about 38%”. For the same compound, the Plasma [4] was 40 to 111 µM.
